As usually defined, the IC50 is the concentration needed to halve the response being measured.

Among the data in US9156829B2, “Cycloalkyl and heterocycloalkyl compounds as orexin receptor antagonists” (Takeda Pharmaceutical Company Limited, priority 2014, dated 2015) are IC50 values, retold here.

The target of one assay is human orexin receptor 2 (Homo sapiens (Human), UniProt O43614). In words: Orexin antagonist activity, intracellular calcium FLIPR assay, RBL-2H3 cells expressing human orexin receptor 2. The assay is classed as cell-based. As to conditions: RBL-2H3 cells stably expressing human orexin receptor 2; orexin-A at approx. 80% maximal response; compound added 15 minutes before; read-out: Human Orexin2R IC50. Background: A change in cytosolic calcium serves as a functional read-out for many receptors and channels.
human orexin receptor 2, sequence (O43614 whole entry): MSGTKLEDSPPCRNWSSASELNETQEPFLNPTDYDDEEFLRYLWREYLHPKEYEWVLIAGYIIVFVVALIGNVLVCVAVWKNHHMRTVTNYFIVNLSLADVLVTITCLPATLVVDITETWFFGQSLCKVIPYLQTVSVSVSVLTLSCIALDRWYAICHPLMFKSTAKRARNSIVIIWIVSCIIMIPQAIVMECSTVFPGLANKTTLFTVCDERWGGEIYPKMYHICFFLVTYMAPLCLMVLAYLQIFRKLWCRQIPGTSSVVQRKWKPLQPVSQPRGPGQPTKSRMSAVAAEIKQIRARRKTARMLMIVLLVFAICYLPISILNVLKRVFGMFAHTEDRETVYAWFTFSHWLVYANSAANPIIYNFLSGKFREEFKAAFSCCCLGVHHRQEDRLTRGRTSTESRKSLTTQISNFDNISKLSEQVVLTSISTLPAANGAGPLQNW

The next assay addresses human orexin receptor 1 (Homo sapiens (Human), UniProt O43613). In words: Orexin antagonist activity, intracellular calcium FLIPR assay, RBL-2H3 cells expressing human orexin receptor 1. As to conditions: RBL-2H3 cells stably expressing human orexin receptor 1; orexin-A at approx. 80% maximal response; compound added 15 minutes before; read-out: Human Orexin1R IC50. The assay is classed as cell-based.

human orexin receptor 1, sequence (O43613 whole entry): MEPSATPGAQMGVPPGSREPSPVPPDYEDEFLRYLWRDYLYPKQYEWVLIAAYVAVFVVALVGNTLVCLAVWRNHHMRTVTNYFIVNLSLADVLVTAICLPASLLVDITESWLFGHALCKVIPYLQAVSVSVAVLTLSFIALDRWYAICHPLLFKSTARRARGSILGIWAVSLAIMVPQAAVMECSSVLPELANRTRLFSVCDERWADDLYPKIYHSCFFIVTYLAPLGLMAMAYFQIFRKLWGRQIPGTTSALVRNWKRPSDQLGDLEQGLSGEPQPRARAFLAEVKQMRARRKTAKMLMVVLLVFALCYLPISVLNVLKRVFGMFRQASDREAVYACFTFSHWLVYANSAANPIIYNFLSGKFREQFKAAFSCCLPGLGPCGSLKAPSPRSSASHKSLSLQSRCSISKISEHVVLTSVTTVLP

With `O=C(N[C@H]1CCC[C@@H]1Nc1ncc(C(F)(F)F)cn1)c1ccccc1-n1nccn1` [Example 18, 2-(2H-1,2,3-Triazol-2-yl)-N-[(1S,2S)-2-{[5-(trifluoromethyl)pyrimidin-2-yl]amino}cyclopentyl]benzamide], the results for the IC50 at human orexin receptor 2 and on human orexin receptor 1 were more than 10 µM and 57 nM, respectively.

Take `O=C(N[C@H]1CCC[C@@H]1Nc1ccc(C(F)(F)F)cn1)c1c(F)cccc1F` [Example 72, 2,6-Difluoro-N-[(1S,2S)-2-{[5-(trifluoromethyl)pyridin-2-yl]amino}cyclopentyl]benzamide]: the IC50 is more than 10 µM on human orexin receptor 2 and 479 nM at human orexin receptor 1.

For `O=C(N[C@H]1CCC[C@@H]1Nc1cnc(C(F)(F)F)cn1)c1cc(F)ccc1-n1nccn1` [Example 36, 5-Fluoro-2-(2H-1,2,3-triazol-2-yl)-N-[(1S,2S)-2-{[5-(trifluoromethyl)pyrazin-2-yl]amino}cyclopentyl]benzamide], the IC50 is more than 10 µM at human orexin receptor 2 and 207 nM at human orexin receptor 1.

For `O=C(N[C@H]1CCC[C@@H]1Oc1cc(C(F)(F)F)ccn1)c1ccccc1-n1nccn1` [Example 20, 2-(2H-1,2,3-Triazol-2-yl)-N-[(1S,2S)-2-{[4-(trifluoromethyl)pyridin-2-yl]oxy}cyclopentyl]benzamide], the IC50 on human orexin receptor 2 is more than 10 µM; at human orexin receptor 1 it was 875 nM.

In the case of `O=C(NC1CC(F)(F)CC1Nc1cnc(C(F)(F)F)cn1)c1ccccc1-n1nccn1` (stereo not shown) [Example 126, N-(4,4-Difluoro-2-{[5-(trifluoromethyl)pyrazin-2-yl]amino}cyclopentyl)-2-(2H-1,2,3-triazol-2-yl)benzamide], the IC50 at human orexin receptor 2 is more than 10 µM; on human orexin receptor 1, 119 nM.

As for `O=C(N[C@H]1CCC[C@@H]1Nc1ccc(C(F)(F)F)cn1)c1ccccc1Cl` [Example 69, 2-Chloro-N-[(1S,2S)-2-{[5-(trifluoromethyl)pyridin-2-yl]amino}cyclopentyl]benzamide], the IC50 on human orexin receptor 2 is more than 10 µM; at human orexin receptor 1 it was 321 nM.

Regarding `Cc1nc(C(F)(F)F)cnc1N[C@H]1CCC[C@@H]1NC(=O)c1ccccc1-n1nccn1` [Example 78, N-[(1S,2S)-2-{[3-Methyl-5-(trifluoromethyl)pyrazin-2-yl]amino}cyclopentyl]-2-(2H-1,2,3-triazol-2-yl)benzamide], the values for the IC50 at human orexin receptor 2 and on human orexin receptor 1 were more than 10 µM and 19 nM, respectively.

For the compound `CC1(Nc2ncc(C(F)(F)F)cc2F)CCCC1NC(=O)c1ncccc1-c1ncccn1` (stereo not shown) [Example 146, N-(2-{[3-Fluoro-5-(trifluoromethyl)pyridin-2-yl]amino}-2-methylcyclopentyl)-3-(pyrimidin-2-yl)pyridine-2-carboxamide], the IC50 at human orexin receptor 2 was more than 10 µM; at human orexin receptor 1, 7 nM.
